Laboratory results as given in patent publication US8926966B1 (Regents of the University of California, priority 1990, dated 2015).

Tested on: IDDM associated autoantibodies in sera
Test: ELISA of sera on plate-bound human GAD65 peptides
Assay type: binding
Conditions: for number of IDDM (at risk, pre-IDDM, at onset) patients positive (X) for the peptide (unlabelled sum line): IDDM sera of Table 11
Protocol: Patient sera and most control sera were those used in a previous study (Kaufman, et al., J. Clin. Investigation, supra) All samples were coded and tested in a blind manner. Peptides were synthesized using an automatic instrument (Applied Biosystems, Foster City, Calif.) and standard conditions. Peptides were dissolved in 60 mM sodium bicarbonate buffer (pH 9.6) at 20 ug/ml and 100 ul of each was added to duplicated wells of a 96 well Nunc-Immuno Plate. Peptides were allowed to bind at 4° C. overnight. The plates were then washed three times with PBS+0.1% Tween 20 (wash buffer), after which the plates were pre-absorbed with 3% BSA in sodium bicarbonate buffer for 0.5 hours at 37° C., or at room temperature overnight. The plates were then washed 5 times with the above wash buffer. 100 ul of serum at a 1/300 dilution in PBS+0.1% Tween 20 and 1% BSA was added to each well and antibodies were allowed to bind for 1 hour at 37° C. The plates were washed 5 times with wash buffer. 100 ul of a 1/600 dilution of HRP-goat anti-human IgG (BRL, Gaithersberg, Md.) was added to each well and allowed to bind for 1 hour at 37° C. The plates were then washed 7 times and 100 ul of substrate buffer was added to each well for 30 minutes at room temperature. The color development was measured at 410 nm using an ELISA plate reader (ICN, Biomedicals, Costa Mesa, Calif.). Positive sera were defined as: OD410 of the sample/negative control ≧3.0.

[1] = IDDM At Onset serum 291, 1/300 dilution
[2] = IDDM At Onset serum 705, 1/300 dilution
[3] = IDDM At Risk serum 052, 1/300 dilution
[4] = IDDM At Risk serum L.I., 1/300 dilution
[5] = Pre-IDDM serum 723, 1/300 dilution
[6] = Pre-IDDM serum J.B. (2), 1/300 dilution
[7] = Pre-IDDM serum P.T. (2), 1/300 dilution
[8] = Pre-IDDM serum R.S. (2), 1/300 dilution
[9] = control serum 5620, 1/300 dilution
[10] = control serum S.M., 1/300 dilution

Sequence: QPPRAAARKAACACDQKPCSC [Peptide 5]
- immunoreactivity by both control and patient sera: often positive
- immunoreactivity of serum with GAD65 peptide (IDDM At Onset serum 048, 1/300 dilution): X (X = positive for immunoreactivity as defined by 00/background^3.0)
- immunoreactivity of serum with GAD65 peptide [1]: X (X = positive for immunoreactivity as defined by 00/background^3.0)
- immunoreactivity of serum with GAD65 peptide [2]: X (X = positive for immunoreactivity as defined by 00/background^3.0)
- immunoreactivity of serum with GAD65 peptide (IDDM At Onset serum S.H., 1/300 dilution): X (X = positive for immunoreactivity as defined by 00/background^3.0)
- immunoreactivity of serum with GAD65 peptide [3]: X (X = positive for immunoreactivity as defined by 00/background^3.0)
- immunoreactivity of serum with GAD65 peptide (IDDM At Risk serum 356, 1/300 dilution): X (X = positive for immunoreactivity as defined by 00/background^3.0)
- immunoreactivity of serum with GAD65 peptide (IDDM At Risk serum 825, 1/300 dilution): X (X = positive for immunoreactivity as defined by 00/background^3.0)
- immunoreactivity of serum with GAD65 peptide [4]: X (X = positive for immunoreactivity as defined by 00/background^3.0)
- immunoreactivity of serum with GAD65 peptide [5]: X (X = positive for immunoreactivity as defined by 00/background^3.0)
- immunoreactivity of serum with GAD65 peptide (Pre-IDDM serum B.Y. (1), 1/300 dilution): X (X = positive for immunoreactivity as defined by 00/background^3.0)
- immunoreactivity of serum with GAD65 peptide (Pre-IDDM serum B.Y. (2), 1/300 dilution): X (X = positive for immunoreactivity as defined by 00/background^3.0)
- immunoreactivity of serum with GAD65 peptide (Pre-IDDM serum J.A., 1/300 dilution): X (X = positive for immunoreactivity as defined by 00/background^3.0)
- immunoreactivity of serum with GAD65 peptide (Pre-IDDM serum J.B. (1), 1/300 dilution): b (b = borderline response (00/background ?2.5-2.9).)
- immunoreactivity of serum with GAD65 peptide [6]: X (X = positive for immunoreactivity as defined by 00/background^3.0)
- immunoreactivity of serum with GAD65 peptide (Pre-IDDM serum P.T. (1), 1/300 dilution): X (X = positive for immunoreactivity as defined by 00/background^3.0)
- immunoreactivity of serum with GAD65 peptide [7]: X (X = positive for immunoreactivity as defined by 00/background^3.0)
- immunoreactivity of serum with GAD65 peptide (Pre-IDDM serum R.S. (1), 1/300 dilution): X (X = positive for immunoreactivity as defined by 00/background^3.0)
- immunoreactivity of serum with GAD65 peptide [8]: X (X = positive for immunoreactivity as defined by 00/background^3.0)
- immunoreactivity of serum with GAD65 peptide (control serum 1688, 1/300 dilution): b (b = borderline response (00/background ?2.5-2.9).)
- immunoreactivity of serum with GAD65 peptide (control serum 4380, 1/300 dilution): X (X = positive for immunoreactivity as defined by 00/background^3.0)
- immunoreactivity of serum with GAD65 peptide [9]: X (X = positive for immunoreactivity as defined by 00/background^3.0)
- immunoreactivity of serum with GAD65 peptide (control serum 5748, 1/300 dilution): X (X = positive for immunoreactivity as defined by 00/background^3.0)
- immunoreactivity of serum with GAD65 peptide (control serum A.P., 1/300 dilution): X (X = positive for immunoreactivity as defined by 00/background^3.0)
- immunoreactivity of serum with GAD65 peptide (control serum FA2, 1/300 dilution): X (X = positive for immunoreactivity as defined by 00/background^3.0)
- immunoreactivity of serum with GAD65 peptide (control serum FA9, 1/300 dilution): X (X = positive for immunoreactivity as defined by 00/background^3.0)
- immunoreactivity of serum with GAD65 peptide (control serum FA11, 1/300 dilution): X (X = positive for immunoreactivity as defined by 00/background^3.0)
- immunoreactivity of serum with GAD65 peptide (control serum H.B., 1/300 dilution): b (b = borderline response (00/background ?2.5-2.9).)
- immunoreactivity of serum with GAD65 peptide (control serum P.T., 1/300 dilution): X (X = positive for immunoreactivity as defined by 00/background^3.0)
- immunoreactivity of serum with GAD65 peptide [10]: X (X = positive for immunoreactivity as defined by 00/background^3.0)

Sequence: LLYGDAEKPAESGGSQPPRA [Peptide 4]
- immunoreactivity of serum with GAD65 peptide [1]: X (X = positive for immunoreactivity as defined by 00/background^3.0)
- immunoreactivity of serum with GAD65 peptide [6]: b (b = borderline response (00/background ?2.5-2.9).)
- immunoreactivity of serum with GAD65 peptide [7]: b (b = borderline response (00/background ?2.5-2.9).)

Sequence: LAFLQDVMNILLQYVVKSFDRS [Peptide 8]
- immunoreactivity of serum with GAD65 peptide [2]: X (X = positive for immunoreactivity as defined by 00/background^3.0)
- immunoreactivity of serum with GAD65 peptide [4]: X (X = positive for immunoreactivity as defined by 00/background^3.0)
- number of IDDM (at risk, pre-IDDM, at onset) patients positive (X) for the peptide (unlabelled sum line): 2
- immunoreactivity of serum with GAD65 peptide [6]: b (b = borderline response (00/background ?2.5-2.9).)
- immunoreactivity of serum with GAD65 peptide [7]: b (b = borderline response (00/background ?2.5-2.9).)
- immunoreactivity of serum with GAD65 peptide [8]: b (b = borderline response (00/background ?2.5-2.9).)

Sequence: VPLQCSALLVREEGLMQNCNQ [Peptide 27]
- immunoreactivity of serum with GAD65 peptide [10]: b (b = borderline response (00/background ?2.5-2.9).)

Sequence: CGRHVDVFKLWLMWRAKGTTG [Peptide 30]
- immunoreactivity of serum with GAD65 peptide [9]: b (b = borderline response (00/background ?2.5-2.9).)

Sequence: VNFFRMVISNPAATHQDIDF [Peptide 37]
- immunoreactivity of serum with GAD65 peptide [2]: X (X = positive for immunoreactivity as defined by 00/background^3.0)
- number of IDDM (at risk, pre-IDDM, at onset) patients positive (X) for the peptide (unlabelled sum line): 2
- immunoreactivity of serum with GAD65 peptide [5]: X (X = positive for immunoreactivity as defined by 00/background^3.0)

Sequence: QNCNQMHASYLFQQDKHYDL [Peptide 28]
- immunoreactivity of serum with GAD65 peptide [3]: b (b = borderline response (00/background ?2.5-2.9).)
